Experimental data taken from the supplement of paper PMC10627819.

Experiments:
Test in all cases: fitness (endpoint OD595 vs no drug) (fraction); higher = more growth
S. aureus Newman = system: S. aureus Newman
Method in brief: (§1)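 Background-subtracted growth curves were the basis for fitness, taken as the optical density at entry into stationary phase over the robust mean of no-drug control wells. A cap of 1 was applied. The curves came from OD595 readings every 30 min for 14 h at 37 °C, in 384-well plates seeded at OD595 0.01 with 30 µl, or 55 µl for S. pneumoniae.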

B. subtilis 168 = conditions: main component drawn
Method in brief: as §1

S. pneumoniae D39V = conditions: main component drawn
Method in brief: as §1

Cc1ncc([N+](=O)[O-])n1CCO [Metronidazole] + CC1(C)S[C@@H]2[C@H](NC(=O)Cc3ccccc3)C(=O)N2[C@H]1C(=O)O [Penicillin G]
fitness, S. aureus Newman
Conditions | first compound 0.625 µg/mL | first compound 0.781 µg/mL | first compound 1.25 µg/mL | first compound 1.562 µg/mL | first compound 2.5 µg/mL | first compound 3.124 µg/mL
partner 0.0195 µg/mL | 0.924 | 0.836 | 0.799 | 0.85 | 0.826 | 0.829
partner 0.039 µg/mL | 0.9 | 0.975 | 0.882 | 0.932 | 0.913 | 0.947
partner 0.078 µg/mL | 0.812 | 0.982 | 0.858 | 0.959 | 0.807 | 0.946

CC1(C)S[C@@H]2[C@H](NC(=O)Cc3ccccc3)C(=O)N2[C@H]1C(=O)O [Penicillin G] + CN(N=O)C(=O)N[C@@H](C=O)[C@@H](O)[C@H](O)[C@H](O)CO [Streptozotocin]
fitness, S. aureus Newman
Conditions | first compound 0.0195 µg/mL | first compound 0.039 µg/mL | first compound 0.078 µg/mL
partner 0.15 µg/mL | 0.759 | 0.731 | 0.709
partner 0.3 µg/mL | 0.623 | 0.627 | 0.621
partner 0.6 µg/mL | 0.501 | 0.486 | 0.493

CN(C)[C@@H]1C(O)=C(C(N)=O)C(=O)[C@@]2(O)C(O)=C3C(=O)c4c(O)ccc(Cl)c4[C@@](C)(O)[C@H]3C[C@@H]12 [Chlortetracycline] + CCC(C)C1C(=O)NC(=C)C(=O)NC(C(=O)NC(CSCC(C(=O)N1)NC(=O)/C(=C/C)/NC(=O)C(C(C)CC)N)C(=O)NC2C(SCC(NC(=O)CNC(=O)C3CCCN3C2=O)C(=O)NC(CCCCN)C(=O)NC4C(SCC(NC(=O)CNC(=O)C(NC(=O)C(NC(=O)C(NC(=O)CNC4=O)C)CC(C)C)CCSC)C(=O)NC(CC(=O)N)C(=O)NC(CCSC)C(=O)NC(CCCCN)C(=O)NC5C(SCC6C(=O)NC(C(=O)NC(CSC(C(C(=O)N6)NC(=O)C(NC5=O)C)C)C(=O)NC(CO)C(=O)NC(C(C)CC)C(=O)NC(CC7=CN=CN7)C(=O)NC(C(C)C)C(=O)NC(=C)C(=O)NC(CCCCN)C(=O)O)CC8=CN=CN8)C)C)C)CC(C)C [Nisin]
Conditions | fitness
B. subtilis 168, first compound 0.0475 µg/mL, partner 0.5 µg/mL | 0.902
B. subtilis 168, first compound 0.0475 µg/mL, partner 1 µg/mL | 0.849
B. subtilis 168, first compound 0.0475 µg/mL, partner 2 µg/mL | 0.452
B. subtilis 168, first compound 0.095 µg/mL, partner 0.5 µg/mL | 0.794
B. subtilis 168, first compound 0.095 µg/mL, partner 1 µg/mL | 0.733
B. subtilis 168, first compound 0.095 µg/mL, partner 2 µg/mL | 0.387
B. subtilis 168, first compound 0.19 µg/mL, partner 0.5 µg/mL | 0.605
B. subtilis 168, first compound 0.19 µg/mL, partner 1 µg/mL | 0.454
B. subtilis 168, first compound 0.19 µg/mL, partner 2 µg/mL | 0.116
S. pneumoniae D39V, first compound 0.012 µg/mL, partner 0.4275 µg/mL | 0.973
S. pneumoniae D39V, first compound 0.012 µg/mL, partner 0.855 µg/mL | 0.804
S. pneumoniae D39V, first compound 0.012 µg/mL, partner 1.71 µg/mL | 0.0763
S. pneumoniae D39V, first compound 0.024 µg/mL, partner 0.4275 µg/mL | 0.909
S. pneumoniae D39V, first compound 0.024 µg/mL, partner 0.855 µg/mL | 0.526
S. pneumoniae D39V, first compound 0.024 µg/mL, partner 1.71 µg/mL | 0.0832
S. pneumoniae D39V, first compound 0.048 µg/mL, partner 0.4275 µg/mL | 0.766
S. pneumoniae D39V, first compound 0.048 µg/mL, partner 1.71 µg/mL | 0.0976
S. pneumoniae D39V, first compound 0.375 µg/mL, partner 1.6 µg/mL | 0.014
S. pneumoniae D39V, first compound 0.375 µg/mL, partner 3.2 µg/mL | 0.0066
S. pneumoniae D39V, first compound 0.375 µg/mL, partner 6.4 µg/mL | 0.0151
S. pneumoniae D39V, first compound 0.75 µg/mL, partner 1.6 µg/mL | 0.0251
S. pneumoniae D39V, first compound 0.75 µg/mL, partner 3.2 µg/mL | 0.0392
S. pneumoniae D39V, first compound 0.75 µg/mL, partner 6.4 µg/mL | 0.0332
S. pneumoniae D39V, first compound 1.5 µg/mL, partner 1.6 µg/mL | 0.0279
S. pneumoniae D39V, first compound 1.5 µg/mL, partner 3.2 µg/mL | 0.0271
S. pneumoniae D39V, first compound 1.5 µg/mL, partner 6.4 µg/mL | 0.064

fitness, B. subtilis 168, one replicate
Conditions | partner 1.25 µg/mL | partner 1.6 µg/mL | partner 2.5 µg/mL | partner 3.2 µg/mL | partner 4 µg/mL | partner 5 µg/mL | partner 6.4 µg/mL | partner 8 µg/mL | partner 16 µg/mL
first compound 0.0475 µg/mL | 0.902 | 0.609 | 0.642 | 0.0268 | 0.0247 | 0.0756 | 0.0534 | 0.006 | 0
first compound 0.095 µg/mL | 0.805 | 0.49 | 0.607 | 0.0306 | 0.0278 | 0.0684 | 0.0417 | 0.0191 | 0.0123
first compound 0.19 µg/mL | 0.686 | 0.0405 | 0.338 | 0.0435 | 0.0329 | 0.0442 | 0.0404 | 0.0227 | 0.0213

CN(C)[C@@H]1C(O)=C(C(N)=O)C(=O)[C@@]2(O)C(O)=C3C(=O)c4c(O)ccc(Cl)c4[C@@](C)(O)[C@H]3C[C@@H]12 [Chlortetracycline] + CC(C1CCC(C(O1)OC2C(CC(C(C2O)OC3C(C(C(CO3)(C)O)NC)O)N)N)N)NC [Gentamicin]
Conditions | fitness
B. subtilis 168, first compound 0.0475 µg/mL, partner 0.0625 µg/mL | 0.917
B. subtilis 168, first compound 0.095 µg/mL, partner 0.0625 µg/mL | 0.778
B. subtilis 168, first compound 0.19 µg/mL, partner 0.25 µg/mL | 0.0795
S. pneumoniae D39V, first compound 0.012 µg/mL, partner 2 µg/mL | 0.8
S. pneumoniae D39V, first compound 0.012 µg/mL, partner 4 µg/mL | 0.752
S. pneumoniae D39V, first compound 0.012 µg/mL, partner 8 µg/mL | 0.706
S. pneumoniae D39V, first compound 0.024 µg/mL, partner 2 µg/mL | 0.393
S. pneumoniae D39V, first compound 0.024 µg/mL, partner 4 µg/mL | 0.392
S. pneumoniae D39V, first compound 0.024 µg/mL, partner 8 µg/mL | 0.389
S. pneumoniae D39V, first compound 0.048 µg/mL, partner 2 µg/mL | 0.255
S. pneumoniae D39V, first compound 0.048 µg/mL, partner 4 µg/mL | 0.184
S. pneumoniae D39V, first compound 0.048 µg/mL, partner 8 µg/mL | 0.187
S. pneumoniae D39V, first compound 0.375 µg/mL, partner 2 µg/mL | 0.0667
S. pneumoniae D39V, first compound 0.375 µg/mL, partner 4 µg/mL | 0.0598
S. pneumoniae D39V, first compound 0.375 µg/mL, partner 8 µg/mL | 0.0694
S. pneumoniae D39V, first compound 0.75 µg/mL, partner 2 µg/mL | 0.0603
S. pneumoniae D39V, first compound 0.75 µg/mL, partner 4 µg/mL | 0.0825
S. pneumoniae D39V, first compound 0.75 µg/mL, partner 8 µg/mL | 0.0967
S. pneumoniae D39V, first compound 1.5 µg/mL, partner 2 µg/mL | 0.0704
S. pneumoniae D39V, first compound 1.5 µg/mL, partner 4 µg/mL | 0.0878
S. pneumoniae D39V, first compound 1.5 µg/mL, partner 8 µg/mL | 0.0614
